Assay results as given in ChEMBL document CHEMBL1131995, “Synthesis and pharmacological profile of 1-aryl-3-substituted pyrrolo[3,2-c]quinolines” (Bioorg Med Chem Lett, 1999).

Legend:
Rattus norvegicus = experiment: Compound was tested in vivo for gastric antisecretory activity after 5 hr of pylorus ligation of SD rat; format: functional; details: Stomach
[1] = target: Potassium-transporting ATPase (Oryctolagus cuniculus); experiment: Compound was tested in vitro for H+/K+ ATPase activity in rabbit stomach preparations

| Structure (SMILES) | IC50 [1] | ED50 (Rattus norvegicus) |
| --- | --- | --- |
| COc1cccc2c1ncc1c(CO)cn(-c3ccccc3C)c12 | 100 µM |  |
| COc1cccc2c1ncc1c(CCO)cn(-c3ccc(F)cc3C)c12 | > 100 µM |  |
| Cc1ccccc1-n1cc(C)c2cnc3c(OC(F)(F)F)cccc3c21 | > 100 µM |  |
| COc1cccc2c1nc(C)c1c(C)cn(-c3ccccc3C)c12 | > 100 µM |  |
| COc1cccc2c1ncc1c(CCO)cn(-c3ccccc3C)c12 | 80 µM |  |
| COc1cccc2c1nc(C)c1c(C)cn(-c3ccc(F)cc3C)c12 | 72 µM |  |
| COc1cccc2c1ncc1c(CO)cn(-c3ccc(F)cc3C)c12 | > 100 µM |  |
| COc1ccc2[nH]c([S+]([O-])Cc3ncc(C)c(OC)c3C)nc2c1 (stereo unspecified) [OMEPRAZOLE] |  | 3.2 mg/kg |

The remaining molecules from weak to strong by IC50 [1], led by results:

| IC50 [1] | Structure (SMILES) | ED50 (Rattus norvegicus) |
| --- | --- | --- |
| 18 µM | CCCC(=O)c1cnc2c(OC)cccc2c1Nc1ccccc1C | 20 mg/kg |
| 17 µM | COc1cccc2c1ncc1c(C(C)C)cn(-c3ccccc3C)c12 | 90 mg/kg |
| 14 µM | COc1cccc2c1ncc1c(C)cn(-c3ccc(F)cc3C)c12 | 10 mg/kg |
| 8.2 µM | COc1cccc2c1ncc1c(C)cn(-c3ccccc3C)c12 | 13 mg/kg |
| 7.2 µM | COc1cccc2c1ncc1c(C(C)C)cn(-c3ccc(O)cc3C)c12 | 49 mg/kg |
| 5.7 µM | CCc1cn(-c2ccc(F)cc2C)c2c1cnc1c(OC)cccc12 | 13 mg/kg |
| 4.8 µM | CCc1cn(-c2ccc(O)cc2C)c2c1cnc1c(OC)cccc12 | 59 mg/kg |
| 4.8 µM | Cc1ccccc1-n1cc(C)c2cnc3c(O)cccc3c21 | 58 mg/kg |
| 3.4 µM | COc1cccc2c1ncc1c(C)cn(-c3ccc(OC(C)=O)cc3C)c12 | 47 mg/kg |
